Laboratory results taken from US6335030B1, “Transdermally administered dextromethorphan as antitussive agent” (Pharmacia & Upjohn AB, priority 1996, dated 2002).

Legend:
[1] = in vivo; cited from earlier work
[2] = in vivo; cited from earlier work; remark: listed apart in the source
[3] = cited from earlier work
[4] = peroral, dogs; cited from earlier work
[5] = In vitro skin permeation in Franz diffusion cells; type: in vitro ADME, pig
Description: Quantitative determination of dextromethorphan in the receptor solution samples from the skin permeation studies in Example 3 and from the membrane permeation studies in Example 4 was done by the HPLC method described under Apparatus.
In vitro permeation of dextromethorphan from the solutions 1, 2, 3, 4, 5, 6, 7 and 8 through dermatomed pig skin was investigated in Franz diffusion Cells.
Skin pieces with a thickness of approximately 765 μm were dermatomed from full thickness pig skin and mounted in glass diffusion cells with an available diffusion area of 1.8 cm^2. Pig skin is a fully accepted model for human skin. The solutions were applied separately on the skin surfaces and the dermal sides were all exposed to 12.1 ml receptor solution consisting of a 0.05M phosphate buffer solution of pH 7.4 equilibrated to 37±1° C.
Permeation of dextromethorphan was followed by removing samples periodically and measuring the concentration by the HPLC method according to Example 2. An increase in the permeated amount of dextromethorphan is seen in the following order: Water, isopropyl myristate, propylene glycol, propylene glycol containing 5% azone, water containing 1% hydroxpropyl-b-cyclodextrine, water containing 1% b-cyclodextrine, ethanol and ethyl acetate used as solvents. The maximal observed flux of dextromethorphan is 21 μg/cm^2/h and the range is from approximately 0.5 to 21 μg/cm^2/h.

COc1ccc2c(c1)[C@]13CCCC[C@@H]1[C@H](C2)N(C)CC3 [dextromethorphan, (+)-3-methoxy-17-methyl-9a,13a,14a-morphinan]
half-life [1]: 4 to 6 h
safety [2]: safe drug
side-effects compared with codeine and noscapine [2]: fewer side-effects
effect on coughing frequency and intensity compared to placebo ([3]; 40 mg perorally, tussometri): significant effect on reducing coughing frequency as well as intensity
antitussive effect upon inhalation ([3]; inhalation of 1-30 mg): has not shown any antitussive effect
absolute bioavailability [4]: 3.8%
maximal observed flux through skin ([5]; dermatomed pig skin, solutions 1-8, receptor phosphate buffer pH 7.4, 37°C): 21 μg/cm^2/h
change of flux depending on solvent ([5]; ethanol, ethyl acetate or addition of cyclodextrines as solvent): remarkable increase in the fluxes
